Results taken from patent publication US20170342451A1, “BIOSYNTHESIS OF PACLITAXEL INTERMEDIATE” (Board of Trustees of Michigan State University, priority 2012, published 2017).

Legend:
TycA = target: T1, TycA (Brevibacillus parabrevis, UniProt P09095); assay type: biochemical, Brevibacillus brevis; conditions: ATP at apparent saturation
T1 construct: this wild-type tycA cDNA encoding the A-, T-, and E-domains was subcloned into a pSU18 vector; made in house; host or cells: Escherichia coli BL21(DE3)
T1 sequence (P09095 with tags, fused parts or gaps): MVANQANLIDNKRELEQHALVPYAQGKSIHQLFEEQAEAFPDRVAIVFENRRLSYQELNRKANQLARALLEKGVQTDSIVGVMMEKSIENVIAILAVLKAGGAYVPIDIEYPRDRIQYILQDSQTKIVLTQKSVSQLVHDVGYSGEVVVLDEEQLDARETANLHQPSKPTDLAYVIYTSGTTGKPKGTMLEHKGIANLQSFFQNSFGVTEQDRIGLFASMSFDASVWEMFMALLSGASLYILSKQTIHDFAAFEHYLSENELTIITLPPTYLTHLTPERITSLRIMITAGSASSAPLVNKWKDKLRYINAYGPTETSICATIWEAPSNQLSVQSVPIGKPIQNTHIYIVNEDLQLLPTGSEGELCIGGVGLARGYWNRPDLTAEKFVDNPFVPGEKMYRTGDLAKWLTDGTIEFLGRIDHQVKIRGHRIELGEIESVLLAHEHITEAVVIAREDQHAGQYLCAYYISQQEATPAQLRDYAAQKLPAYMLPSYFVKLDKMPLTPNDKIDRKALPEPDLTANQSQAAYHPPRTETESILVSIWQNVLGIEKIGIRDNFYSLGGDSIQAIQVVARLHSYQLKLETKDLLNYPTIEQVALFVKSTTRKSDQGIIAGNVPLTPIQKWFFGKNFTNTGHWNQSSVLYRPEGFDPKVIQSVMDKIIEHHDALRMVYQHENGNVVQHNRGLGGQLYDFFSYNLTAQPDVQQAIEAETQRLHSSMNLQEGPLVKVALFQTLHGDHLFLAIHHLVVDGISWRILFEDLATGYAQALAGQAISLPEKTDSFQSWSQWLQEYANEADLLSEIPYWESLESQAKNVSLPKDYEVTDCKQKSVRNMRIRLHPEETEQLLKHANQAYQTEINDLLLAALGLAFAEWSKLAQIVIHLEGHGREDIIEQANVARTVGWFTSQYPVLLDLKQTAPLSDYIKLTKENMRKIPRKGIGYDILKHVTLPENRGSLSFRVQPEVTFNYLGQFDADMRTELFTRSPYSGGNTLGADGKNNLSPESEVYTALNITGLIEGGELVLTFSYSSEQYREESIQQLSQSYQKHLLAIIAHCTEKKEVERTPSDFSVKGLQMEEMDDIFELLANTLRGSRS
Experimental: (§1) Each (S)-α-phenylalanine, (R)-β-phenylalanine, and (2R,3S)-phenylisoserine substrate (at 1 mM) was separately incubated (31° C.) in 100-μL reactions containing 100 mM HEPES (pH 8.0), ATP (1 mM), MgCl2 (3 mM) and TycA or TycA-S563A (20 μg in 0.1-mL assays) to establish steady-state conditions relative to protein concentration and time. Under steady-state conditions, each (S)-α-phenylalanine, (R)-β-phenylalanine, and (2R,3S)-phenylisoserine substrate, at ten concentration intervals from 5 to 1000 μM (in duplicate), was separately incubated with TycA or TycA-S563A for 1 min at 31° C. The reactions were acid-quenched (pH 3 with 10% formic acid), and the biosynthetic products were quantified by LC-ESI-MRM mass spectrometry (Anderson and Hunter, 2006) on the LC-QP/ESI-MS/MS fitted with a C18 Ascentis Express column (2.5×50 mm, 2.7 μm) at 30° C. An aliquot (5 μL) of each sample was loaded onto the column and the analytes were eluted with the CoA-Elution Gradient (see procedures described above). The effluent from the chromatography column was directed to the mass spectrometer where the first quadrupole mass analyzer (in negative ion mode) was set to select for the molecular ion of a biosynthesized (S)-α-phenylalanine-AMP, (R)-β-phenylalanine-AMP, and (2R,3S)-phenylisoserine-AMP. […]

TycA-S563A = TycA-S563A (Brevibacillus parabrevis, UniProt P09095, S563A); assay type: biochemical, Brevibacillus brevis; design: The T-domain mutant TycA-S563A was also subcloned into a pSU18 vector and heterologously expressed as a His6-fusion; made in house; host or cells: Escherichia coli BL21(DE3)
Experimental: as §1

In the case of `N[C@H](CC(=O)O)c1ccccc1` [(R)-β-Phe, (R)-β-phenylalanine], the “kcat^ATP/KM of TycA lower than the value for conversion to the CoA thioester” value (TycA) was ~15 fold, the “kcat^ATP” value (TycA; acyl-AMP formation) was 0.00167 ± 0.00017 s⁻¹ and the “kcat^ATP/KM of TycA-S563A lower than the value for conversion to the CoA thioester” value (TycA-S563A) was “about 46 fold”. For the same compound, the “kcat^ATP” value (TycA-S563A; acyl-AMP formation, ATP at apparent saturation) was 0.001 ± 0.00017 s⁻¹.
